From PMC12424289, “Programmable Nanostructure Assembly of a Paclitaxel Derivative Enables Tunable Anticancer Therapy via Hydrogen Bond Engineering” (ACS Nano, 2025)

Legend:
human lung A549 cells = assay: CCK8 antiproliferation assay, A549; assay type: cell-based; details: A549, 48 h treatment
Experimental: (§1) The mouse breast cancer cell line 4T1 and the human ovarian cancer cell line SKOV3 were cultured in RPMI 1640 medium supplemented with 10% fetal bovine serum, 100 units·mL^–1 penicillin, and 100 μg·mL^–1 streptomycin. The human lung cancer cell line A549 and the luciferase-expressing human colorectal carcinoma cell line HCT116-Luc were cultured in high-glucose DMEM medium supplemented with 10% fetal bovine serum, 100 units·mL^–1 penicillin, and 100 μg·mL^–1 streptomycin. All cell lines were maintained at 37 °C in a Steri-Cycle 371 incubator (Thermo Scientific, USA) with a humidified atmosphere of 5% CO2. Only cells between passages 5 and 15 were used for cell-based experiments.
(§2) The antiproliferative activity of PTP was evaluated using the Cell Counting Kit-8 (CCK8) assay. PTX solution served as a positive control. Cell suspensions were prepared at a density of 3 × 10^4 cells·mL^–1 and seeded in 96-well plates at a volume of 100 μL per well. The plates were incubated for 24 h to allow cell attachment and growth. Subsequently, the culture media were replaced with fresh media containing varying concentrations of PTX or PTP solutions (100 μL per well), and the cells were incubated for an additional 48 h (n = 3). Control wells received fresh culture media alone (n = 3). […] Finally, the absorbance was measured at 450 nm using a microplate reader (Synergy H1, BioTek, USA). […]

[1] = Pharmacokinetics after intraperitoneal injection; assay type: in vivo; details: male, Sprague-Dawley, rat, plasma; rats, single ip; PTP@HA 100.0 mg·kg^–1 PTP, PTX solution 12.0 mg·kg^–1
Experimental: For plasma samples, 50 μL of plasma was mixed with 100 μL of a docetaxel acetonitrile solution (15 ng·mL^–1) for protein precipitation. The mixture was vortexed and then centrifuged at 4 °C, 17 000 rpm for 30 min. For tissue samples, mice were euthanized at specified time points, and tissues were harvested and rinsed with saline. Two kidneys, the entire heart, spleen, lung, tumor, and 150–200 mg of liver were placed in grinding tubes. Saline was added at a ratio of 1:5 (m/v), and the tissues were ground using a freezing grinder (Jingxin, China) at 4 °C. Next, 100 μL of docetaxel acetonitrile solution (15 ng·mL^–1) was added to 50 μL of the tissue homogenate. After vortex mixing, the mixture was centrifuged at 4 °C, 17 000 rpm for 30 min. The supernatants for both plasma and tissue samples were analyzed by LC-MS as described below.
The concentrations of PTP and PTX in plasma and tissue samples were determined using liquid chromatography–mass spectrometry (LC-MS) with a G6470A system (Agilent, USA) equipped with a C18 column (2.1 × 100 mm, 2.7 μm, Agilent, USA). […]
The PTP@HA hydrogel, containing PTP at a concentration of 5.0 mg·mL^–1, was prepared by adding HA saline solution (20.0 mg·mL^–1) to solid PTP, followed by vortexed for 1 min. […] Plasma concentrations of both PTP and PTX were subsequently quantified using LC-MS (G6470A, Agilent, USA).

Balb/c mice = assay: Maximum tolerated dose / survival in mice; assay type: in vivo, mouse; details: iv, PTX 33.0 mg·kg^–1, after 14 days
mouse breast 4T1 cells = assay: CCK8 antiproliferation assay, 4T1; assay type: cell-based; details: 4T1, 48 h treatment
Experimental: as §1, §2

[2] = tested on: human colon HCT116-Luc cells; assay: CCK8 antiproliferation assay, HCT116-Luc; assay type: cell-based; details: 48 h treatment
Experimental: as §1, §2

tubulin = assay: Isothermal titration calorimetry with tubulin; assay type: binding; details: tubulin 180 μM titrated into 25 μM compound
Experimental: ITC experiments were performed using a Nano-ITC (TA Instruments, USA) with all samples degassed for 8 min prior to measurement. Experiments were conducted under stirring at 350 rpm. To account for background signals, control experiments were conducted and subtracted from the test data. The resulting heat values were analyzed using an independent model to extract thermodynamic parameters. For tubulin binding studies, solutions were prepared in PEM buffer containing 5% (v/v) DMSO. In each experiment, 400 μL of the […] was loaded into the sample cell, and 400 μL of PEM buffer with 5% (v/v) DMSO was placed in the reference cell. Tubulin solution (180 μM) was titrated into the sample cell in 25 injections of 2 μL each at 4 °C. A control titration of tubulin into PEM buffer (5% DMSO) was performed to account for dilution effects. To assess interactions between PTP and excipients, PTP dispersions (25 μM) were loaded into the sample cell, and water was used in the reference cell. PEG400 solution (6.0 mg·mL^–1) was titrated into a 2.0 mg·mL^–1 PTP dispersion, and HA (2.7 mg·mL^–1) into a 1.0 mg·mL^–1 PTP dispersion. Both titrations were performed at 25 °C with 25 injections of 2 μL each. Control experiments were performed by titrating PEG400 or HA into water to correct for nonspecific heat effects.

[3] = tested on: human ovarian SKOV3 cells; assay: CCK8 antiproliferation assay, SKOV3; assay type: cell-based; details: SK-OV-3, SKOV3, 48 h treatment
Experimental: as §1, §2

Compound `CC(=O)O[C@H]1C(=O)[C@@]2(C)[C@H]([C@H](OC(=O)c3ccccc3)[C@]3(O)C[C@H](OC(=O)[C@H](O)[C@@H](NC(=O)c4ccccc4)c4ccccc4)C(C)=C1C3(C)C)[C@]1(OC(C)=O)CO[C@@H]1C[C@@H]2O` [PTX, Paclitaxel] has an IC50 (human lung A549 cells) of 11.3 nM, an MRT [1] of 4.4 h and a half-life [1] of 3.2 h. It also gave a survival (Balb/c mice) of 83.3%, an IC50 (mouse breast 4T1 cells) of 25.9 nM and an IC50 [2] of 13.1 nM. The “molar ratio of tubulin to compound” value (tubulin; ITC) was 1.5, the “Gibbs free energy change (ΔG)” value (tubulin; 5% DMSO, 4 °C) was −27.0 kJ·mol^–1 and the IC50 [3] was 37.4 nM.
